Experimental data: patent US7029878B2, “Melanin concentrating hormone receptor chimeric and fusion proteins” (Merck & Co., Inc., priority 2000, dated 2006)
“And” between values parts separate entries of the source, which are not always exact repeats. Equal entries are not always repeated.

Assays:
mouse MCH-1R-EGFP = test: SPA-based Binding Assay, CHO cell membranes, [125I]Phe13Tyr19-MCH; settings: displacement of [125I]Phe13Tyr19-MCH, stable CHO cell membranes
Text: (§1) Wild-type CHO cells were transfected using SuperFect (Qiag.en) and either mouse MCH-1R-EGFP or human short/mouse species chimeric MCH-1R-EGFP. Forty-eight hours after transfection, transfected cells were subjected to positive selection for approximately ten days in media containing G418. Following selection, MCH-1R-EGFP expressing CHO cells were bulk sorted by Fluorescence Assisted Cell Sorting (FACS) for one or two rounds on the basis of fluorescence intensity to increase the population of cells expressing EGFP. Following bulk sorts, individual clones of varying fluorescence intensities were isolated by FACS and expanded.
Fluorometric Microvolume Assay Technology (FMAT) was initially employed to screen a large number of stable clones by whole cell binding with a fluorescently labeled MCH derivative (SymJz-MCH, PE Biosystems) to identify those clones with good specific binding windows.

mMCH-1R-EGFP = test: cAMP flashplate assay of stable CHO cell clones; type: cell-based, mouse; settings: human MCH, 15 minutes at 37° C., 10 μM forskolin; individual stable CHO clones; FIG. 2
Text: FIG. 2 illustrates a cAMP flashplate assay of CHO cell clones stably expressing mMCH-1R-EGFP. […] Cells were then lysed and assayed for bound [^125I]cAMP.
as §1
The functional activity of these clones was evaluated with the cAMP Flashplate Assay (FIGS. 2 and 3).

[1] = molecular target: T1, HuLong/mMCH1R-1-EGFP (human long form/mouse species chimeric MCH1R-1-EGFP) (Homo sapiens, UniProt Q99705, A336T/R230K/V159M); test: cAMP production (FlashPlate), transiently transfected CHO cells stimulated with human MCH; type: cell-based; settings: HuLong/mMCH1R-1-EGFP vs wild-type human MCH1R long form; transient CHO
T1 construct: ID; NO; 14 (human long form/mouse species chimeric MCH1R-linker-EGFP); 12 amino acid linker […]; expressed in transfected cells; host or cells: CHO (transient) and HEK293 Aequorin (transient)
Method: Both HEK293 Aequorin (National Institutes of Health) and CHO mammalian cell lines were transiently transfected with the various MCH1R/GFP variant fusion constructs, as well as the appropriate control constructs. Transfection was performed using Lipofectamine 2000 (Gibco BRL) per the manufacturer recommended protocol. […] Aequorin bioluminescence is a representative measure of intracellular Ca^2+ mobilization. cAMP production was measured with the Adenylyl Cyclase Activation FlashPlate Assay (NEN Life Science Products, Inc.).

In the case of human MCH, the “IC50 with MCH compared with wild-type human short isoform” value (mouse MCH-1R-EGFP) is reported as “indistinguishable”, the EC50 (mMCH-1R-EGFP) is reported as 0.111 nM and 0.126 nM and 0.129 nM and 0.23 nM and the “EC50 fold higher than that of corresponding wild-type control” value [1] is reported as “approximately 7.5 fold”.
